Experimental findings from patent publication US9255279B2, “Anaplastic lymphoma kinase (ALK) as an oncogene capable of transforming normal human cells” (The Trustees of the University of Pennsylvania, priority 2013, dated 2016) are described below.

Assay [1] has as its system CD30. Briefly: CD30 expression in ALK-negative T-cell lymphoma line 2A. It counts as cell-based, human. To be noted: ALK-negative T-cell lymphoma cells (2A); FIG. 3B. On the procedure:
(§1) The cells were analyzed using FACSCalibur (BD Biosciences) and, for data analysis, CellQuest Pro software version 6.03 (BD Biosciences). For the standard cell-surface staining, 0.5−1.0×10^6 cells were incubated for 20 minutes at 4° C. with 10-20 ul of fluorescein isothiocyanate-conjugated (FITC), phycoerythrin-conjugated (PE), or allophycocyanin-conjugated (APC) standard anti-T- and B-cell antibodies, PD-L1 or isotype control antibody (Bio-Legend, San Diego, Calif.). The intracellular staining was performed by using commercially available fixation and permeabilization reagents (BD Biosciences or Life Technologies, Carlsbad, Calif.). In brief, 0.5−1.0×10^6 washed membrane-stained or unstained cells were fixed for 15 minutes at room temperature with 100 ul of Fix/Per-solution or Fixation medium. After washing the cells were re-suspended in 100 ul of PBS or Permeabilization medium, and incubated for 15 minutes at room temperature with 10-20 ul of PE-labeled ALK or isotype control antibody (BD Biosciences). After additional washing, cells were analyzed by flow cytometry (FACSCalibur; BD Biosciences). Data acquisition and analysis were performed using CellQuest Pro software version 6.03 (BD Biosciences).

Assay [2] has as its system CD30. Briefly: CD30 expression by flow cytometry in NPM-ALK-transformed CD4+ T cells and ALK+ALCL-derived cells. Format: cell-based, human. To be noted: 100 nM, FIG. 3B. On the procedure: as §1
A further assay concerns PD-L1. Briefly: PD-L1 expression by flow cytometry. It counts as cell-based, human. To be noted: 100 nM; FIG. 3D. On the procedure:
as §1
(In general: In flow cytometry, cells or beads pass a laser one at a time.)

Assay [3] deals with NPM-ALK-transformed CD4+ T cells. Briefly: Cell growth of NPM-ALK-transformed CD4+ T cells. To be noted: FIG. 3E and FIG. 12A. It counts as cell-based, human. On the procedure:
The cells suspended at 2×10^4/well were incubated at 37° C. in microtiter plates for up to two days, then incubated with MTT (Promega Madison, […].) for 4 hours. Well contents were solubilized overnight in the medium containing 10% SDS and 0.01M HCL. Absorbance at 570 nm in each well was measured using a Titertek Multiskan reader (Thermo Fisher Scientific).
The assay was performed using a cell-proliferation enzyme linked immunosorbent assay (ELISA; Roche Diagnostics, Indianapolis, Ind.) according to the manufacturer's protocol. In brief, cells were cultured at a concentration of 2×10^4 cells per well for 44 hours and labeled with bromodeoxyuridine for 4 hours. After centrifugation, supernatant removal, and plate drying, the cells were fixed and the DNA was denatured using FixDenat reagent (Roche Diagnostics). The amount of incorporated bromodeoxyuridine was determined by incubation with a specific antibody conjugated with horseradish peroxidase, followed by colorimetric conversion of the substrate and absorbance evaluation in the ELISA plate reader.
For annexin V expression assay, cells were treated with the ALK inhibitor CEP-28122 (100 nmol/L) for 48 hours or with ALK siRNA (100 pmol/L) for 72 hours. […] The stained cells were analyzed by flow cytometry using a FACSCalibur system (BD Biosciences); data acquisition and analysis were performed using Cell-Quest Pro software (BD Biosciences).

In assay [4] the target is T1, NPM-ALK (Homo sapiens, UniProt Q9UM73). Briefly: Phosphorylation of ALK and its targets in NPM-ALK-transfected HEK cells. It counts as cell-based. The arrangement: expressed in transfected cells; the other entry of the earlier key: NPM1 (P06748, Nucleophosmin). To be noted: higher dose of inhibitor needed, FIG. 10. As for the experimental part:
(§2) These experiments were performed using antibodies against phosphorylated (p)-ALK, p-STAT3, p-S6RP, total S6RP (Cell Signaling Technology), total NPM-ALK (Pharmigen, San Diego, Calif.), and total STAT3 and actin (ACTB), both from Santa Cruz Biotechnology (Santa Cruz, Calif.), according to the standard protocols.

A further assay concerns IL-10. Briefly: IL-10 assay. To be noted: 100 nM; FIG. 3C. Format: cell-based, human. As for the experimental part: IL-10 expression was using a Human Cytokine 10-Plex Antibody Bead Kit (Life Technologies) as per manufacturer protocol. Sample acquisition employed a Luminex FlexMAP-3D (Life Technologies), and analyses performed using xPONENT software (version 4.0). A nine-point standard curve at threefold dilutions was employed with the range defined by 80%-120% of expected/observed values. Samples were tested in duplicate and CV was <10%. The results are presented as the decrease in the ALK inhibitor (CEP-28122)-treated cells relative to untreated cells.
Total RNA was extracted (RNeasy kit; Qiagen) and reverse transcribed using High Capacity RNA-to-cDNA kit (ABI). Expression levels of NPM-ALK mRNA were quantified by using an ABI/PRISM 7700 sequence detection system with TaqMan Gene Expression Assay kits (NPM-ALK, Hs03024829; β-actin, Hs9999903) (Life Technologies) and SYBR Green assay (Life Technologies) using primers for IL-10 (5′-AAGGCGCATGTGAACTCC-3′; SEQ ID NO: 1 and 5′-[…]-3′; SEQ ID NO: 2) and for GAPDH (5′-[…]-3′; SEQ ID NO: 3 and 5′-[…]-3′; SEQ ID NO: 4. All assays were performed in duplicate. The fold difference in RNA levels was calculated on the basis of the difference between CT values obtained for control and individual mRNA (ΔCT).

Assay [5] concerns the target T1, NPM-ALK. Briefly: Western blotting of phosphorylated signaling proteins in NPM-ALK-transformed CD4+ T cells (NA1, NA2) and SUDHL-1. Format: cell-based. Set-up: expressed in transfected cells; host or cells: Human CD4+ T cells transduced with a lentiviral vector (lines NA1, NA2); The control line SUDHL-1 expresses NPM-ALK endogenously from the translocation; the other entry of the earlier key: NPM1 (P06748, Nucleophosmin). To be noted: NA1, NA2 and control SUDHL-1 cells, 100 nM, FIG. 3A. On the procedure: as §2
A mixture of four siRNAs specific for ALK or control siRNAs (all from Dharmacon; Thermo Fisher Scientific, Waltham, Mass.) was introduced into cells using Lipofectamine 2000 as described previously (Marzec et al., 2008, Proc Natl Acad Sci USA 105(52):20852-20857) for SUDHL-1 cells and Nucleofector T-solution (Amaxa; Lonza, Walkersville, Md.) for CD4+ T-cell derived NA1 cells.
(In general: In western blotting, separated proteins are transferred to a membrane and probed.)

T1 sequence (Q9UM73 with tags, fused parts or gaps): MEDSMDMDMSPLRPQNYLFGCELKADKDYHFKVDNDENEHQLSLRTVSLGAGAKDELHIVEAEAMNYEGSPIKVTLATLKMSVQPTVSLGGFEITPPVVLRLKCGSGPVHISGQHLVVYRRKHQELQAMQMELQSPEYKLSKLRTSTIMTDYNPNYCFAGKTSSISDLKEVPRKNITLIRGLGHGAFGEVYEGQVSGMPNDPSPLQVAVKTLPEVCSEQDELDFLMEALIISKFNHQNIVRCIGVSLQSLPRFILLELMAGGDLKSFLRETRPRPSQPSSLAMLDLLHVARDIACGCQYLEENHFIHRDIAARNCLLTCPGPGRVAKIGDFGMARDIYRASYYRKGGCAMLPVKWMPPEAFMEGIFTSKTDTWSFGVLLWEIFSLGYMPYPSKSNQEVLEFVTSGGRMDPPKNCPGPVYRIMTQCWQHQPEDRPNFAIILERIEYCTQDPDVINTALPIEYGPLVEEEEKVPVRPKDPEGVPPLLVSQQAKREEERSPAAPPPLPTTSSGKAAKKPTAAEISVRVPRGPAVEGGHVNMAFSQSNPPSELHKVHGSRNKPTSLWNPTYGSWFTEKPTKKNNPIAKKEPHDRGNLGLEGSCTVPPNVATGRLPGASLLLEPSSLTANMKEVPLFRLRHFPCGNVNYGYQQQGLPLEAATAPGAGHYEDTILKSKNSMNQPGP

With `COc1c(Nc2ncc(Cl)c(N[C@H]3[C@@H](C(N)=O)[C@@H]4C=C[C@H]3C4)n2)ccc2c1CC[C@@H](N1CCOCC1)CC2` [CEP-28122], the CD30 expression entry in the assay on CD30 [1] is on record as “no effect”. Further, the “expression of CD30” value is listed as “Suppressive effect” in the assay on CD30 [2] and “diminished” in the assay with CD30 [2] (listed as ALK inhibitor). For the same compound, the “expression of PDL-1” value with PD-L1 is “Suppressive effect”. Also, the cell growth entry in assay [3] is recorded as “dose-dependent inhibition”; in assay [3] (listed as ALK inhibitor), “suppressed”. Further, the “ALK, STAT3 and S6RP phosphorylation” value at NPM-ALK [4] is listed as “suppress”. Moreover, the “synthesis of IL-10” value with IL-10 is reported as “Suppressive effect”. Further, the “phosphorylation of cell signaling proteins (ALK, STAT3, S6RP)” value at NPM-ALK [5] is on record as “Suppressive effect”; on NPM-ALK [5] (listed as ALK inhibitor), “suppression”.
